Laboratory results: ChEMBL document CHEMBL6134893, “The Exploration of Indole-Based LSD1-Targeted Inhibitors for Enhanced Immune Response in Gastric Cancer via the PD-L1/PD-1 Axis” (J Med Chem, 2025)
The source made the active and inactive calls. The calls are words filed in the database; no cut-off is given here.

Legend:
MFC [1] = test: In vivo induction of T-cell infiltration in mouse MFC cells implanted in 615 mouse assessed as increase in CD3+ CD8+ T cells at 25 mg/kg, IG treated daily for 14 days by flow cytometry (reference value: 2.79 %); format: functional; conditions: time 14 day
MFC [2] = test: Induction of T-cell killing response in mouse MFC cells assessed as decrease in cell viability at 1 to 4 uM pretreated for 5 days followed by co-culturing with human PBMC-derived T cells for 4 days by CCK8 assay; format: functional, cell-based; conditions: dose 1-4 µM, time 5.0 day
MFC [3] = test: Antitumor activity against mouse MFC cells implanted in 615 mouse assessed as tumor growth suppression treated intragastrically daily for 14 days; format: functional, cell-based; conditions: dose 10-50 mg/kg, route ig, time 14.0 day
Mus musculus [4] = test: In vivo induction of T-cell response in mouse MFC cells implanted in 615 mouse assessed as increase in IFN-gamma mRNA level at 10 to 50 mg/kg, IG treated daily for 14 days by PCR analysis; format: functional, organism-based; conditions: dose 10-50 mg/kg, time 14.0 day
MKN-45 [5] = test: Effect on H3K4me1 demethylation in human MKN-45 cells harboring LSD1-KO at 1 to 4 uM incubated for 5 days by Western blot analysis; format: functional, cell-based; conditions: dose 1-4 µM, time 5.0 day
MKN-45 [6] = test: Effect on H3K4me2 demethylation in human MKN-45 cells harboring LSD1-KO at 1 to 4 uM incubated for 5 days by Western blot analysis; format: functional, cell-based; conditions: dose 1-4 µM, time 5.0 day
[7] = Toxicity in 615 mouse implanted with mouse MFC cells assessed as histological change in lung at 10 to 50 mg/kg, IG treated daily for 14 days by H and E staining based analysis; format: organism-based; conditions: in vivo, po, 336 h, dose 10-50 mg/kg, time 14 day
[8] = Toxicity in 615 mouse implanted with mouse MFC cells assessed as histological change in kidney at 10 to 50 mg/kg, IG treated daily for 14 days by H and E staining based analysis; format: organism-based; conditions: in vivo, po, 336 h, dose 10-50 mg/kg, time 14 day
MKN-45 [9] = test: Inhibition of cell migration in human MKN-45 cells at 1 to 4 uM incubated up to 48 hrs by wound healing assay; format: functional, cell-based; conditions: dose 1-4 µM
[10] = Toxicity in 615 mouse implanted with mouse MFC cells assessed as histological change in spleen at 10 to 50 mg/kg, IG treated daily for 14 days by H and E staining based analysis; format: organism-based; conditions: in vivo, po, 336 h, dose 10-50 mg/kg, time 14 day
[11] = target: Lysine-specific histone demethylase 1A (Mus musculus) (UniProt Q6ZQ88); test: Inhibition of LSD1 in mouse MFC cells assessed as accumulation of membrane PD-L1 at 2 uM incubated for 5 days; format: cell-based; set-up: scale not given: the % may be the effect or the level left; conditions: time 5.0 day
MKN-45 [12] = test: Effect on H3K4me3 demethylation in human MKN-45 cells at 1 to 4 uM incubated for 5 days by Western blot analysis; format: functional, cell-based; conditions: dose 1-4 µM, time 5.0 day
[13] = target: Programmed cell death protein 1/Programmed cell death 1 ligand 1 (Homo sapiens) (UniProt Q15116+Q9NZQ7); test: Inhibition of PD-1/PD-L1 interaction in human MKN-45 cells pretreated for 5 days followed by PD-1-Fc addition by DAPI staining based confocal microscopy; format: cell-based; conditions: dose 1-4 µM, time 5.0 day
[14] = target: T1, Lysine-specific histone demethylase 1A (Homo sapiens, UniProt O60341); test: Inhibition of LSD1 in human MKN-45 cells assessed as accumulation of membrane PD-L1 at 2 uM incubated for 5 days; format: cell-based; set-up: scale not given: the % may be the effect or the level left; conditions: time 5.0 day
MFC [15] = test: Antitumor activity against mouse MFC cells implanted in 615 mouse assessed as decrease PD-L1 expression treated intragastrically daily for 14 days by Western blot analysis; format: functional, cell-based; conditions: dose 10-50 mg/kg, route ig, time 14.0 day
[16] = target: T1, Lysine-specific histone demethylase 1A; test: Inhibition of LSD1 in human MKN-45 cells; format: cell-based
[17] = target: T1, Lysine-specific histone demethylase 1A; test: Inhibition of LSD1 in human MKN-45 cells assessed as decrease in demethylation of H3K4me2 incubated for 5 days by Western blot analysis; format: cell-based; conditions: dose 1-4 µM, time 5.0 day
MFC [18] = test: Antitumor activity against mouse MFC cells implanted in 615 mouse assessed as decrease Ki67 expression at 10 to 50 mg/kg, IG treated daily for 14 days by IHC analysis; format: functional, organism-based; conditions: dose 10-50 mg/kg, time 14.0 day
[19] = Toxicity in 615 mouse implanted with mouse MFC cells assessed as body weight change at 10 to 50 mg/kg, IG treated daily for 14 days; format: organism-based; conditions: in vivo, po, 336 h, dose 10-50 mg/kg, time 14 day
[20] = Toxicity in 615 mouse implanted with mouse MFC cells assessed as histological change in heart at 10 to 50 mg/kg, IG treated daily for 14 days by H and E staining based analysis; format: organism-based; conditions: in vivo, po, 336 h, dose 10-50 mg/kg, time 14 day
[21] = target: T1, Lysine-specific histone demethylase 1A; test: Induction of thermal stabilization of LSD1 in human MKN-45 cells incubated for 5 days followed by heat exposure at 40 to 55 degreeC by CETSA; format: cell-based; conditions: time 5.0 day
[22] = target: T1, Lysine-specific histone demethylase 1A; test: Inhibition of LSD1 in human MKN-45 cells assessed as decrease in demethylation of H3K4me1 incubated for 5 days by Western blot analysis; format: cell-based; conditions: dose 1-4 µM, time 5.0 day
[23] = target: Lysine-specific histone demethylase 1A (Mus musculus) (UniProt Q6ZQ88); test: Inhibition of LSD1 in mouse MFC cells assessed as accumulation of membrane PD-L1 at 4 uM incubated for 5 days (reference value: 63.0 %); format: cell-based; set-up: scale not given: the % may be the effect or the level left; conditions: time 5.0 day
MKN-45 [24] = test: Induction of T-cell killing response in human MKN-45 cells assessed as decrease in cell viability pretreated for 5 days followed by co-culturing with human PBMC-derived T cells for 4 days by CCK8 assay; format: functional, cell-based; conditions: dose 1-4 µM, time 5.0 day
MKN-45 [25] = test: Induction of T-cell killing response in human MKN-45 cells assessed as increase in IFN-gamma secretion at 1 to 4 uM pretreated for 5 days followed by co-culturing with human PBMC-derived T cells for 4 days by ELISA; format: functional, cell-based; conditions: dose 1-4 µM, time 5.0 day
Mus musculus [26] = test: In vivo induction of T-cell response in mouse MFC cells implanted in 615 mouse assessed as increase in IL-2 mRNA level at 10 to 50 mg/kg, IG treated daily for 14 days by PCR analysis; format: functional, organism-based; conditions: dose 10-50 mg/kg, time 14.0 day
MFC [27] = test: Induction of T-cell killing response in mouse MFC cells assessed as increase in IFN-gamma secretion at 1 to 4 uM pretreated for 5 days followed by co-culturing with human PBMC-derived T cells for 4 days by ELISA; format: functional, cell-based; conditions: dose 1-4 µM, time 5.0 day
[28] = Toxicity in 615 mouse implanted with mouse MFC cells assessed as histological change in liver at 10 to 50 mg/kg, IG treated daily for 14 days by H and E staining based analysis; format: organism-based; conditions: in vivo, po, 336 h, dose 10-50 mg/kg, time 14 day
[29] = target: Lysine-specific histone demethylase 1A (Mus musculus) (UniProt Q6ZQ88); test: Inhibition of LSD1 in mouse MFC cells assessed as reduction in PD-L1 level incubated for 5 days by Western blot analysis; format: cell-based; conditions: time 5.0 day
[30] = target: T1, Lysine-specific histone demethylase 1A; test: Inhibition of LSD1 in human MKN-45 cells assessed as accumulation of membrane PD-L1 at 4 uM incubated for 5 days (reference value: 58.4 %); format: cell-based; set-up: scale not given: the % may be the effect or the level left; conditions: time 5.0 day
MKN-45 [31] = test: Inhibition of cell invasion in human MKN-45 cells at 1 to 4 uM incubated for 2 days by crystal violet staining based transwell assay; format: functional; conditions: dose 1-4 µM, time 2.0 day
[32] = target: T1, Lysine-specific histone demethylase 1A; test: Inhibition of recombinant LSD1 (unknown origin) extracted from Escherichia coli BL21 (DE3) using H3K4me2 peptide as substrate in presence of […] by Amplex Red assay
MFC [33] = test: Antitumor activity against mouse MFC cells implanted in 615 mouse assessed as decrease in tumor weight at 10 to 50 mg/kg, IG treated daily for 14 days; format: functional, organism-based; conditions: dose 10-50 mg/kg, time 14.0 day
[34] = target: Lysine-specific histone demethylase 1A (Mus musculus) (UniProt Q6ZQ88); test: Inhibition of LSD1 in mouse MFC cells assessed as accumulation of membrane PD-L1 at 1 uM incubated for 5 days (reference value: 63.0 %); format: cell-based; set-up: scale not given: the % may be the effect or the level left; conditions: time 5.0 day
MKN-45 [35] = test: Induction of T-cell killing response in human MKN-45 cells harboring LSD1-KO assessed as decrease in cell viability at 1 to 4 uM pretreated for 5 days followed by co-culturing with human PBMC-derived T cells for 4 days by CCK8 assay; format: functional, cell-based; conditions: dose 1-4 µM, time 5.0 day
MKN-45 [36] = test: Effect on PD-L1 expression in human MKN-45 cells harboring LSD1-KO at 1 to 4 uM incubated for 5 days by Western blot analysis; format: functional, cell-based; conditions: dose 1-4 µM, time 5.0 day
[37] = target: T1, Lysine-specific histone demethylase 1A; test: Inhibition of LSD1 in human MKN-45 cells assessed as accumulation of membrane PD-L1 at 1 uM incubated for 5 days (reference value: 58.4 %); format: cell-based; set-up: scale not given: the % may be the effect or the level left; conditions: time 5.0 day
MFC [38] = test: In vivo induction of T-cell infiltration in mouse MFC cells implanted in 615 mouse assessed as increase in CD3+ CD8+ T cells at 10 mg/kg, IG treated daily for 14 days by flow cytometry (reference value: 2.79 %); format: functional; conditions: time 14 day
[39] = target: T1, Lysine-specific histone demethylase 1A; test: Inhibition of LSD1 in human MKN-45 cells assessed as reduction in PD-L1 level incubated for 5 days by Western blot analysis; format: cell-based; conditions: dose 1-4 µM, time 5.0 day
MFC [40] = test: In vivo induction of T-cell infiltration in mouse MFC cells implanted in 615 mouse assessed as increase in CD3+ CD8+ T cells at 50 mg/kg, IG treated daily for 14 days by flow cytometry (reference value: 2.79 %); format: functional; conditions: time 14 day
MKN-45 [41] = test: Induction of T-cell killing response in human MKN-45 cells assessed as increase in IL-2 secretion at 1 to 4 uM pretreated for 5 days followed by co-culturing with human PBMC-derived T cells for 4 days by ELISA; format: functional, cell-based; conditions: dose 1-4 µM, time 5.0 day

## C=C1C(=O)OCC1C(O)c1cn(S(=O)(=O)c2ccc(N(C)C)c([N+](=O)[O-])c2)c2ccc(Cl)cc12 (stereo unspecified)
MFC [1]
  Activity: 6.46%
MFC [2]
  Activity: Active
MFC [3]
  Activity: Dose-dependent-effect
Mus musculus [4]
  Activity: Active
MKN-45 [5]
  Activity: No effect
MKN-45 [6]
  Activity: No effect
[7]
  Activity: Non-toxic
[8]
  Activity: Non-toxic
MKN-45 [9]
  inhibition: Active; Effect Was Better Than Ory-1001
[10]
  Activity: Non-toxic
[11]
  Activity: 45.6%
MKN-45 [12]
  Activity: No effect
[13]
  inhibition: Dose-dependent-effect
[14]
  Activity: 47.3%
MFC [15]
  Activity: Dose-dependent-effect
[16]
  IC50: 80.3 nM
[17]
  inhibition: Dose-dependent-effect
MFC [18]
  Activity: Active
[19]
  Activity: Non-toxic
[20]
  Activity: Non-toxic
[21]
  Activity: Active
[22]
  inhibition: Dose-dependent-effect
[23]
  Activity: 16%
MKN-45 [24]
  Activity: Dose-dependent-effect
MKN-45 [25]
  Activity: Active
Mus musculus [26]
  Activity: Active
MFC [27]
  Activity: Active
[28]
  Activity: Non-toxic
[29]
  inhibition: Dose-dependent-effect
[30]
  Activity: 39.1%
MKN-45 [31]
  inhibition: Active; Effect Was Better Than Ory-1001
[32]
  IC50: 80 nM
MFC [33]
  Activity: Active
[34]
  Activity: 59.7%
MKN-45 [35]
  Activity: inactive
MKN-45 [36]
  Activity: No effect
[37]
  Activity: 49.5%
MFC [38]
  Activity: 4.92%
[39]
  inhibition: Dose-dependent-effect
MFC [40]
  Activity: 16.6%
MKN-45 [41]
  Activity: Active
